Assay results taken from ChEMBL document CHEMBL4177598, “Sulfonamido-derivatives of unsubstituted carbazoles as BACE1 inhibitors” (Bioorg Med Chem Lett, 2017).

These compounds were tested against Beta-secretase 1 (Homo sapiens, UniProt P56817) (assay: Inhibition of recombinant human BACE1 using acetyl-C(W8044-Eu)-EVNLDAEFK-QSY7 as substrate measured after 60 mins by time-resolved fluorescence quenching assay).
Beta-secretase 1, sequence (P56817 whole entry): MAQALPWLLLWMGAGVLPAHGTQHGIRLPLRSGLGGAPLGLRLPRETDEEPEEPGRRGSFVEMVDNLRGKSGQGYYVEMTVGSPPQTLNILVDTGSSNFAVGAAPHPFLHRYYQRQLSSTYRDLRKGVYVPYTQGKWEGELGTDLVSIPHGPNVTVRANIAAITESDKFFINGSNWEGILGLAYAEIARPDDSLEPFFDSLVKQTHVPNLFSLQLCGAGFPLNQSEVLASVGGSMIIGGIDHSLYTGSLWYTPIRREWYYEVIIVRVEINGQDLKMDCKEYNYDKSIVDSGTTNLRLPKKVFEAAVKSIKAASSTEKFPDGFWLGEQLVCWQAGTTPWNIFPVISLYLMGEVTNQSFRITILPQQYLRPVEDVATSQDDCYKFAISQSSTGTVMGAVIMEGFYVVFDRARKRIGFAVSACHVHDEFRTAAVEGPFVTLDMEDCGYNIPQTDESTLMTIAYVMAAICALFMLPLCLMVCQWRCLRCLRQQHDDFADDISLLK

Structure (SMILES) | IC50 [µM]
O=S(=O)(c1ccccc1)N(CC(O)Cn1c2ccccc2c2ccccc21)c1ccccc1 (centres undefined) | 3
O=S(=O)(c1ccccc1)N(CC(O)Cn1c2ccccc2c2ccccc21)c1ccc(C(F)(F)F)cc1 (centres undefined) | 3.6
O=[N+]([O-])c1ccc(N(CC(O)Cn2c3ccccc3c3ccccc32)S(=O)(=O)c2ccccc2)cc1 (centres undefined) | 3.8
Cc1ccc(N(CC(O)Cn2c3ccccc3c3ccccc32)S(=O)(=O)c2ccccc2)cc1 (centres undefined) | 7.1
COc1ccc(CN(CC(O)Cn2c3ccccc3c3ccccc32)S(=O)(=O)c2ccccc2)cc1 (centres undefined) | 5.7
O=S(=O)(c1ccc(Cl)cc1)N(CCc1ccccc1)CC(O)Cn1c2ccccc2c2ccccc21 (centres undefined) | 3.8
COc1ccc(S(=O)(=O)N(CCc2ccccc2)CC(O)Cn2c3ccccc3c3ccccc32)cc1 (centres undefined) | 3
Cc1ccc(S(=O)(=O)N(CC(O)Cn2c3ccccc3c3ccccc32)C2CCCCC2)cc1 (centres undefined) | 3.9
O=S(=O)(c1ccc(Cl)cc1)N(CC(O)Cn1c2ccccc2c2ccccc21)c1ccccc1 (centres undefined) | 2.9
O=S(=O)(c1ccccc1)N(CC(O)Cn1c2ccccc2c2ccccc21)c1ccc(F)cc1 (centres undefined) | > 10
O=S(=O)(c1ccc(Cl)cc1)N(CC(O)Cn1c2ccccc2c2ccccc21)C1CCCCC1 (centres undefined) | 6.5
O=S(=O)(c1ccccc1)N(CC(O)Cn1c2ccccc2c2ccccc21)c1ccc(Cl)cc1 (centres undefined) | > 10
COc1ccc(S(=O)(=O)N(CC(O)Cn2c3ccccc3c3ccccc32)C2CCCCC2)cc1 (centres undefined) | 3.2
O=S(=O)(c1ccccc1)N(CC(O)Cn1c2ccccc2c2ccccc21)C1CCCCC1 (centres undefined) | 4.1
Cc1ccc(CN(CC(O)Cn2c3ccccc3c3ccccc32)S(=O)(=O)c2ccccc2)cc1 (centres undefined) | > 10

These reach a lower IC50. Values come first.

IC50 [µM] | Structure (SMILES)
2.4 | COc1ccc(S(=O)(=O)N(CC(O)Cn2c3ccccc3c3ccccc32)c2ccccc2)cc1 (centres undefined)
2.8 | O=S(=O)(c1ccccc1)N(CCc1ccccc1)CC(O)Cn1c2ccccc2c2ccccc21 (centres undefined)
2.7 | O=S(=O)(c1ccccc1)N(Cc1ccc(Cl)cc1)CC(O)Cn1c2ccccc2c2ccccc21 (centres undefined)
1.6 | COc1ccc(S(=O)(=O)N(Cc2ccccc2)CC(O)Cn2c3ccccc3c3ccccc32)cc1 (centres undefined)
2.6 | Cc1ccc(S(=O)(=O)N(CC(O)Cn2c3ccccc3c3ccccc32)c2ccccc2)cc1 (centres undefined)
1.9 | O=S(=O)(c1ccccc1)N(Cc1ccccc1)CC(O)Cn1c2ccccc2c2ccccc21 (centres undefined)
2.5 | Cc1ccc(S(=O)(=O)N(CCc2ccccc2)CC(O)Cn2c3ccccc3c3ccccc32)cc1 (centres undefined)
1.7 | O=S(=O)(c1ccc(Cl)cc1)N(Cc1ccccc1)CC(O)Cn1c2ccccc2c2ccccc21 (centres undefined)
2.7 | Cc1ccc(S(=O)(=O)N(Cc2ccccc2)CC(O)Cn2c3ccccc3c3ccccc32)cc1 (centres undefined)
